This note sets out measurements from article PMC7108740, “Exploring the molecular structures that confer ligand selectivity for galanin type II and III receptors” (PLoS ONE, 2020).

Where a chain is given by its changes, count along the chain named. Ends that are not written are not given here.

What all share (type): cell-based
Experiment [1] addresses T1, human GALR2 (Homo sapiens, UniProt O43603).
T1 construct: host or cells: HEK293 cells stably expressing Gqi
T1 sequence (O43603 1-387): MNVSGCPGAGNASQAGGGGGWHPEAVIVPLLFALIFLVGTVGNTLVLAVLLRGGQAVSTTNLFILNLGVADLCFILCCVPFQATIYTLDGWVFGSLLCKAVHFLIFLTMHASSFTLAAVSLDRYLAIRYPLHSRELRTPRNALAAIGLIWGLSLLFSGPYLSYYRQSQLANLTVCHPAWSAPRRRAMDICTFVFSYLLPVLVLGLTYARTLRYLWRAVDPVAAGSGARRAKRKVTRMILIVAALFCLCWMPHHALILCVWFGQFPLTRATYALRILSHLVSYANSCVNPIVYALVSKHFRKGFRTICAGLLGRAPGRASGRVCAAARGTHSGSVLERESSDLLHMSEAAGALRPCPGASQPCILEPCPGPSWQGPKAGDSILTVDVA
Briefly: SRE-luc luciferase assay, WT GALR2. As to conditions: SRE-luc in HEK293 Gqi cells, ligand 6 h, mean ± SE, at least three independent experiments, SEM. The text has this: (§1) The pcDNA3.1 vector was purchased from Invitrogen (San Diego, CA, USA). The serum response element (SRE)-luciferase (SRE-luc) vector containing a single copy of the SRE (CCATATTAGG) conjugated with luciferase was purchased from Stratagene (La Jolla, CA, USA). The cDNAs for human GALR1, GALR2, and GALR3 were obtained from BRN SCIENCE, Inc. The cDNAs were inserted into the EcoRⅠ and XhoⅠ sites of pcDNA3.1.
(§2) HEK293 cells stably expressing the Gqi construct, which allows induction of Gq-dependent signaling pathways upon activation of a Gi-coupled receptor [14, 30], were maintained in Dulbecco's Modified Eagle's Medium (DMEM) in the presence of 10% fetal bovine serum and 1% penicillin and streptomycin. For all transfections, 200 ng DNA (100 ng receptor and 100 ng SRE-luc) mixed with lipofectamine 2000 was applied to 60–80% confluent cells on a multi-well plate according to the manufacturer's instructions (Invitrogen, Carlsbad, CA).
(§3) For luciferase assays, HEK293 Gqi cells were seeded on 48-well plates at a density of 2.5 × 10^4 cells/well one day before transfection. A mixture including 100 ng SRE-luc reporter construct, 100 ng expression plasmid, and lipofectamine 2000 reagent in diluted Opti-MEM (Gibco) was incubated at room temperature for 20 min and then added into each well according to the manufacturer's instructions (Invitrogen, CA, USA). Before exposure to the ligands, the cells were maintained in serum-free DMEM for 16–18 h. Approximately 48 h after transfection, the cells were treated with ligand for 6 h. The cells were then lysed by the addition of 100 μl lysis buffer. The luciferase activity in 50 μl cell extract was determined using a luciferase assay system according to the standard protocol for the Synergy 2 Multi-Mode Microplate Reader (BioTek, Winooski, VT, USA).
(§4) Data analysis was performed by non-linear regression with a sigmoidal dose-response curve. The concentrations of agonists that induced half-maximal stimulation (EC50) were calculated using the GraphPad PRISM5 software (GraphPad software, Inc., San Diego, CA). All data are presented as the mean ± standard error (SE) of at least three independent experiments.

For experiment [2], the target named is T2, GALR3 septuple (Homo sapiens, UniProt O60755, A190V/A191F/C272L/G192S/L100F/Y103F/Y107H).
T2 construct: expressed in transfected cells; host or cells: HEK293 cells stably expressing pGlosensor-22F cAMP plasmid
T2 sequence (O60755 1-368 L100F/Y103F/Y107H/A190V/A191F/G192S/C272L): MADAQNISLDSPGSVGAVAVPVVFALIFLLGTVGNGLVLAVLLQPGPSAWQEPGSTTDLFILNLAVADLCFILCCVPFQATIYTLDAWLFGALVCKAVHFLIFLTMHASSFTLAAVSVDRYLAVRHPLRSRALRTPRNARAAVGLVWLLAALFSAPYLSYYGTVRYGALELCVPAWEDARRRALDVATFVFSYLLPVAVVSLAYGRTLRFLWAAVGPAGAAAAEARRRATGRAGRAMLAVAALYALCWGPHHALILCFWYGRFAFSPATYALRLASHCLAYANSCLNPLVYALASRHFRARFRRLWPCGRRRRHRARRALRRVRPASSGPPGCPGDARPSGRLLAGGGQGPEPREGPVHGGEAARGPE
Briefly: SRE-luc luciferase assay, GALR3 septuple mutant. As to conditions: SRE-luc in HEK293 Gqi cells, ligand 6 h, mean ± SE, SEM. From the text: For domain swapping between GALR2 and GALR3, individual cDNA fragments of interest were amplified by polymerase chain reaction (PCR) with Pfu polymerase (ELPIS Biotech, Daejeon, Korea) and two specific primers, one corresponding to the 5' or 3' end of the GALR2 or GALR3 cDNA and the other to the region of overlap between the two receptors. The two resulting fragments, one from GALR2 and the other from GALR3, were subjected to a second round of PCR to generate the chimeric cDNAs. To construct single, double-, triple-, pentuple-, hextuple-, and septuple-mutant receptors, amino acids of GALR3 were substituted for the amino acids at the corresponding positions in GALR2 using PCR-based site-directed mutagenesis. […]
For luciferase assays, HEK293 Gqi cells were seeded on 48-well plates at a density of 2.5 × 10^4 cells/well one day before transfection. […] The luciferase activity in 50 μl cell extract was determined using a luciferase assay system according to the standard protocol for the Synergy 2 Multi-Mode Microplate Reader (BioTek, Winooski, VT, USA).
Data analysis was performed by non-linear regression with a sigmoidal dose-response curve. The concentrations of agonists that induced half-maximal stimulation (EC50) were calculated using the GraphPad PRISM5 software (GraphPad software, Inc., San Diego, CA). […]

Experiment [3] concerns the target T2, GALR3 septuple. In words: cAMP assay (inhibition of forskolin-induced cAMP), GALR3 septuple mutant. As to conditions: Glosensor-22F cAMP HEK293 cells, agonist 10 min then forskolin 10 μM, mean ± SE, SEM. On the procedure:
SPX-induced or Qu-SPX-induced cyclic adenosine monophosphate (cAMP) mobilization was measured in HEK293 cells stably expressing the pGlosensor^TM-22F cAMP plasmid (Promega Corp., Madison, WI, USA). The Glosensor-22F cAMP HEK293 cells were seeded on 96-well plates at a density of 2.0 × 10^4 cells/well 24 h before transfection. A mixture including 100 ng expression plasmid and lipofectamine 2000 reagent in diluted Opti-MEM (Gibco) was incubated at room temperature for 20 min. The mixtures were added into each well according to the manufacturer's instructions (Invitrogen, CA, USA). After 48 h, Glosensor cAMP substrates were added to the transfected cells in CO2-independent media. After 2 h, the cells were incubated with a range of agonist concentrations or vehicle for 10 min and then exposed to foskolin (10 μM). Luminescence was measured for up to 30 min using a Microplate Reader (BioTek, Winooski, VT, USA).
Data analysis was performed by non-linear regression with a sigmoidal dose-response curve. The concentrations of agonists that induced half-maximal stimulation (EC50) were calculated using the GraphPad PRISM5 software (GraphPad software, Inc., San Diego, CA). All data are presented as the mean ± standard error (SE) of at least three independent experiments. […]
Background: Changes in cAMP serve as a functional read-out for many G protein-coupled receptors.

In experiment [4] the target is T3, GALR3 single mutant A^264P (Homo sapiens, UniProt O60755, A264P).
T3 construct: expressed in transfected cells; host or cells: HEK293 cells stably expressing Gqi
In words: SRE-luc luciferase assay, GALR3 A264P. As to conditions: GALR3 A^264P; SRE-luc in HEK293 Gqi cells, ligand 6 h; mean ± S.E.; SEM. The text has this:
(§5) For domain swapping between GALR2 and GALR3, individual cDNA fragments of interest were amplified by polymerase chain reaction (PCR) with Pfu polymerase (ELPIS Biotech, Daejeon, Korea) and two specific primers, one corresponding to the 5' or 3' end of the GALR2 or GALR3 cDNA and the other to the region of overlap between the two receptors. The two resulting fragments, one from GALR2 and the other from GALR3, were subjected to a second round of PCR to generate the chimeric cDNAs. To construct single, double-, triple-, pentuple-, hextuple-, and septuple-mutant receptors, amino acids of GALR3 were substituted for the amino acids at the corresponding positions in GALR2 using PCR-based site-directed mutagenesis. All of the chimeric constructs were cloned into the pcDNA3 expression vector at HindⅢ and XbaⅠ sites. The DNA sequences of the chimeras were verified by automatic sequencing. […] The luciferase activity in 50 μl cell extract was determined using a luciferase assay system according to the standard protocol for the Synergy 2 Multi-Mode Microplate Reader (BioTek, Winooski, VT, USA). […] The concentrations of agonists that induced half-maximal stimulation (EC50) were calculated using the GraphPad PRISM5 software (GraphPad software, Inc., San Diego, CA). […]

Experiment [5] has as its target T4, GALR3 single mutant F^265P (Homo sapiens, UniProt O60755).
T4 construct: expressed in transfected cells; host or cells: HEK293 cells stably expressing Gqi
Briefly: SRE-luc luciferase assay, GALR3 F265P. As to conditions: GALR3 F^265P; SRE-luc in HEK293 Gqi cells, ligand 6 h; mean ± S.E.; SEM.
Excerpt: as §5

Experiment [6] deals with T5, GALR3 single mutant S^266T (Homo sapiens, UniProt O60755, S266T).
T5 construct: expressed in transfected cells; host or cells: HEK293 cells stably expressing Gqi
Briefly: SRE-luc luciferase assay, GALR3 S266T. Particulars: GALR3 S^266T; SRE-luc in HEK293 Gqi cells, ligand 6 h; mean ± S.E.; SEM.
Excerpt: as §5

The target in experiment [7] is T6, GALR3 single mutant P^267R (Homo sapiens, UniProt O60755, P267R).
T6 construct: expressed in transfected cells; host or cells: HEK293 cells stably expressing Gqi
In words: SRE-luc luciferase assay, GALR3 P267R. As to conditions: GALR3 P^267R; SRE-luc in HEK293 Gqi cells, ligand 6 h; mean ± S.E.; SEM.
Excerpt: as §5

For experiment [8], the target named is T7, GALR3 single mutant C^272L (Homo sapiens, UniProt O60755, C272L).
T7 construct: expressed in transfected cells; host or cells: HEK293 cells stably expressing Gqi
Briefly: SRE-luc luciferase assay, GALR3 C272L. As to conditions: GALR3 C^272L; SRE-luc in HEK293 Gqi cells, ligand 6 h; mean ± S.E.; SEM.
Excerpt: as §5

Experiment [9] addresses T8, GALR3 (Homo sapiens, UniProt O60755).
T8 sequence (O60755 1-368): T2 sequence (O60755 1-368 L100F/Y103F/Y107H/A190V/A191F/G192S/C272L) with F100L, F103Y, H107Y, V190A, F191A, S192G, L272C
Briefly: SRE-luc luciferase assay, WT GALR3. Also on record: host or cells: HEK293 cells stably expressing Gqi. Particulars: SRE-luc in HEK293 Gqi cells, ligand 6 h, mean ± SE, at least three independent experiments, SEM.
Excerpt: as §1, §2, §3, §4

T3 sequence (O60755 whole entry A264P): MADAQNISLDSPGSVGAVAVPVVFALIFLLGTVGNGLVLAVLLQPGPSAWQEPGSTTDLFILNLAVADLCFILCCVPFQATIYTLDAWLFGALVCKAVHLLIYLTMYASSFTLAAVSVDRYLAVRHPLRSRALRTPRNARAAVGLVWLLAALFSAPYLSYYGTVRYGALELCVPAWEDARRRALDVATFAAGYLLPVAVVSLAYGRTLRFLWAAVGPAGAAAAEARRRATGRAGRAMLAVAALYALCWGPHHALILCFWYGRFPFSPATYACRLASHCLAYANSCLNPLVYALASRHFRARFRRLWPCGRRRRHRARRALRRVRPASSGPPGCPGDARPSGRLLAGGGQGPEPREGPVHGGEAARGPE
T4 sequence (O60755 whole entry F265L): as the sequence (O60755 whole entry A264P) above, with P264A, F265L counted along it
T7 sequence (O60755 whole entry C272L): as the sequence (O60755 whole entry A264P) above, with P264A, C272L counted along it
T5 sequence (O60755 whole entry S266T): as the sequence (O60755 whole entry A264P) above, with P264A, S266T counted along it
T6 sequence (O60755 whole entry P267R): as the sequence (O60755 whole entry A264P) above, with P264A, P267R counted along it

As usually defined, the EC50 is the midpoint of the concentration-response curve. As to NWTPNAALYLFGPQ-NH2 [Qu-SPX], the concentration for a half-maximal effect (EC50) in experiment [1] came out at 87.1 ± 19.5 nM; in [2], 1100 ± 163 nM; in [3] it was 794 ± 358 nM.

Regarding NWTPQAMLYLFGAQ-NH2 [F^11-SPX], the EC50 came to 47.9 ± 11.5 nM in experiment [1]; 589 ± 200 nM in experiment [4]; 457 ± 118 nM in experiment [5]; 200 ± 29.7 nM in [6]; 562 ± 173 nM in [7]; 66.1 ± 22.4 nM in [8]. In experiment [9], the 50% effective concentration (EC50) was 490 ± 118 nM.
